The supplement of paper PMC10307832

Assays:
Assay in all cases: relative viability (nuclei count vs DMSO), 5 days (fraction); higher = more cells survive
Sorafenib + Decitabine = compound: CNC(=O)c1cc(Oc2ccc(NC(=O)Nc3ccc(Cl)c(C(F)(F)F)c3)cc2)ccn1 [Sorafenib] + Nc1ncn([C@H]2C[C@H](O)[C@@H](CO)O2)c(=O)n1 [Decitabine] (partner 2 µM)
Method in brief: (§1)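 Relative viability is defined as nuclei in treated wells over nuclei in vehicle wells. Duplicate plates were run and medians reported. Lung cancer cell lines in 1536-well plates were dosed by pin tool one day after seeding, with one drug or with a fixed anchor-drug dose plus five library-drug doses (not always all listed) in √10 steps, and nuclei were counted after 5 days.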

Sorafenib + Alpelisib = compound: CNC(=O)c1cc(Oc2ccc(NC(=O)Nc3ccc(Cl)c(C(F)(F)F)c3)cc2)ccn1 [Sorafenib] + Cc1nc(NC(=O)N2CCC[C@H]2C(N)=O)sc1-c1ccnc(C(C)(C)C(F)(F)F)c1 [Alpelisib] (partner 2 µM)
Method in brief: as §1

Sorafenib + Tozasertib = compound: CNC(=O)c1cc(Oc2ccc(NC(=O)Nc3ccc(Cl)c(C(F)(F)F)c3)cc2)ccn1 [Sorafenib] + Cc1cc(Nc2cc(N3CCN(C)CC3)nc(Sc3ccc(NC(=O)C4CC4)cc3)n2)n[nH]1 [Tozasertib] (partner 0.1 µM)
Method in brief: as §1

Sorafenib + Bortezomib = compound: CNC(=O)c1cc(Oc2ccc(NC(=O)Nc3ccc(Cl)c(C(F)(F)F)c3)cc2)ccn1 [Sorafenib] + CC(C)C[C@H](NC(=O)[C@H](Cc1ccccc1)NC(=O)c1cnccn1)B(O)O [Bortezomib] (partner 0.002 µM)
Method in brief: as §1

Sorafenib + Navitoclax = compound: CNC(=O)c1cc(Oc2ccc(NC(=O)Nc3ccc(Cl)c(C(F)(F)F)c3)cc2)ccn1 [Sorafenib] + CC1(C)CCC(c2ccc(Cl)cc2)=C(CN2CCN(c3ccc(C(=O)NS(=O)(=O)c4ccc(N[C@H](CCN5CCOCC5)CSc5ccccc5)c(S(=O)(=O)C(F)(F)F)c4)cc3)CC2)C1 [Navitoclax] (partner 0.5 µM)
Method in brief: as §1

Row | Cell Line | relative viability (Sorafenib + Decitabine; first compound 0.08 µM) | relative viability (Sorafenib + Decitabine; first compound 0.253 µM) | relative viability (Sorafenib + Decitabine; first compound 2.53 µM) | relative viability (Sorafenib + Decitabine; first compound 8 µM) | relative viability (Sorafenib + Alpelisib; first compound 0.08 µM) | relative viability (Sorafenib + Alpelisib; first compound 0.253 µM) | relative viability (Sorafenib + Alpelisib; first compound 2.53 µM) | relative viability (Sorafenib + Tozasertib; first compound 0.08 µM) | relative viability (Sorafenib + Tozasertib; first compound 0.253 µM) | relative viability (Sorafenib + Tozasertib; first compound 2.53 µM) | relative viability (Sorafenib + Tozasertib; first compound 8 µM) | relative viability (Sorafenib + Bortezomib; first compound 0.08 µM) | relative viability (Sorafenib + Bortezomib; first compound 0.253 µM) | relative viability (Sorafenib + Bortezomib; first compound 2.53 µM) | relative viability (Sorafenib + Bortezomib; first compound 8 µM) | relative viability (Sorafenib + Navitoclax; first compound 0.08 µM) | relative viability (Sorafenib + Navitoclax; first compound 0.253 µM) | relative viability (Sorafenib + Navitoclax; first compound 2.53 µM) | relative viability (Sorafenib + Navitoclax; first compound 8 µM) | relative viability (Sorafenib + Alpelisib; first compound 8 µM)
1 | 201T | 0.854 | 0.816 | 0.867 | 0.879 | 1 | 1.05 | 1.13 | 0.964 | 0.925 | 0.955 | 0.827 | 1.1 | 1.07 | 1.19 | 1.18 | 1.19 | 1.24 | 1.27 | 1.18 | –
2 | A-427 | 0.598 | 0.528 | – | 0.532 | 1.08 | 1.07 | 1.06 | 0.21 | 0.261 | 0.217 | 0.132 | 0.953 | 0.922 | 0.96 | 0.817 | 0.946 | 0.917 | 0.985 | 0.563 | 0.925
3 | ABC-1 | 1.23 | – | 0.823 | 1 | 1.01 | 0.945 | 1.11 | 0.227 | 0.219 | 0.214 | 0.185 | 0.36 | 0.253 | 0.321 | 0.336 | – | – | – | – | 1.03
4 | BEN | 0.746 | 0.726 | – | 0.461 | 1.1 | 0.889 | 0.906 | 0.519 | 0.423 | 0.536 | 0.482 | 0.951 | 0.659 | – | 0.631 | 0.09 | 0.0558 | 0.0776 | 0.0641 | 0.798
5 | CAL-12T | – | – | – | – | 1.18 | 1.09 | 0.971 | 0.354 | 0.284 | 0.271 | 0.219 | 1.04 | 0.689 | 1.24 | 0.465 | 1.32 | 1.19 | 1.06 | 0.64 | 0.705
6 | COR-L23 | 0.417 | 0.374 | 0.501 | 0.332 | 0.83 | 0.758 | 0.79 | 0.24 | 0.185 | 0.113 | 0.079 | 1.11 | 0.964 | 0.888 | 0.877 | 1.03 | 0.898 | 1.1 | 0.485 | 0.637
7 | COR-L 105 | 0.733 | 0.617 | 0.695 | 0.573 | 1.09 | 0.95 | 0.966 | 0.405 | 0.435 | 0.322 | 0.411 | – | 0.806 | 0.994 | 0.478 | 0.792 | 0.821 | 0.89 | 0.865 | 0.793
8 | ChaGo-K-1 | 0.532 | 0.537 | 0.51 | 0.471 | – | – | – | 0.229 | 0.235 | 0.215 | 0.192 | 1.18 | 0.781 | 1.16 | 0.451 | 1.23 | 0.866 | 1.11 | 0.576 | –
9 | EKVX | 0.339 | 0.362 | 0.378 | 0.305 | 1.09 | 0.886 | 0.872 | 0.382 | 0.419 | 0.467 | 0.212 | 1.19 | 0.879 | 0.962 | 0.994 | 1.13 | 0.882 | 0.884 | 0.963 | 0.828
10 | EMC-BAC-2 | 0.925 | – | – | 0.757 | – | 0.73 | 0.707 | 0.297 | 0.186 | 0.266 | 0.295 | 1.06 | 0.917 | 1.07 | 1.02 | 1.22 | 1.06 | 1.18 | 1.11 | 0.702
11 | EPLC-272H | 0.42 | 0.395 | 0.388 | 0.284 | 0.928 | 0.986 | 1.15 | 0.331 | 0.389 | 0.389 | 0.293 | 0.945 | 0.872 | 0.959 | 0.696 | 1.22 | 1.14 | 1.04 | 0.96 | 0.898
12 | H3255 | 0.656 | 0.523 | 0.593 | 0.366 | 0.851 | 0.639 | 0.802 | 0.588 | 0.458 | 0.72 | 0.482 | 0.841 | 0.706 | 1.05 | 0.726 | 0.652 | 0.46 | 0.616 | 0.502 | 0.552
13 | HARA | 0.633 | 0.465 | 0.592 | 0.461 | 0.991 | 0.773 | 0.856 | 0.0919 | 0.137 | 0.146 | 0.1 | 1.18 | 1.02 | 1.16 | 1.02 | 1.17 | 1.08 | – | 1.13 | 0.797
14 | HCC-15 | 0.679 | 0.631 | 0.723 | 0.321 | 0.86 | 0.932 | 0.955 | 0.443 | 0.438 | 0.372 | 0.179 | 0.996 | 0.83 | 0.912 | 0.807 | 0.748 | 0.713 | 0.804 | 0.522 | 0.575
15 | HCC-44 | – | 0.862 | 0.886 | 0.866 | 0.833 | 0.785 | 0.793 | 0.884 | 0.688 | 0.858 | 0.773 | 0.814 | 0.805 | 0.865 | 0.699 | – | 0.92 | 1.03 | 0.909 | 0.649
16 | HCC-78 | 0.752 | 0.634 | 0.608 | 0.596 | 0.373 | 0.297 | 0.367 | 0.391 | 0.371 | 0.492 | 0.493 | 0.517 | 0.427 | – | 0.585 | 0.814 | 0.731 | 0.739 | 0.84 | 0.423
17 | HCC-366 | 0.337 | 0.295 | 0.34 | 0.279 | 0.563 | 0.484 | 0.429 | 0.109 | 0.083 | 0.054 | 0.0297 | 1.05 | 0.98 | 0.991 | 0.831 | 1.11 | 0.944 | 1.06 | 1.01 | 0.307
